{"source": "patent US8329395B2", "about": "(priority 2003, dated 2012)", "key": {"[1]": {"test_system": "thiA-lacZ fusion (ΩamyE::thiA-lacZ) in B. subtilis TH21", "type": "cell-based, Bacillus subtilis", "conditions": "for repression of thiA-lacZ expression: 1 μM in shake-flask culture, early logarithmic phase (OD600=0.8-0.9), compared to minimal medium without thiamin; for repressing activity on thiA-lacZ expression: 1 μM each", "description": "The strategy to isolate thiamin deregulated mutants of B. subtilis was to mutagenize bacteria that contained a thiA-lacZ fusion and then screen for colonies on XGAL-containing medium that were Lac^+ (i.e. blue colonies) in the presence of TPP or thiamin. A 732 bp-long DNA fragment containing 417 bp of the 5′ promoter region of thiA was prepared by PCR using standard methods and cloned unidirectionally in front of the promoterless lacZ gene of the pDG1728 vector (Guerout-Fleury et al. (1996) Gene 180:57-61), resulting in plasmid pTH12. This vector is designed to introduce ectopic transcriptional lacZ fusions into the non-essential amyE locus of B. subtilis. Plasmid pTH12 was linearized by restriction enzyme digestion and transformed into B. subtilis PY79, selecting for colonies that were resistant to 100 μg/ml spectinomycin."}, "[2]": {"test_system": "B. subtilis PY79 gene transcripts", "assay": "Microarray profiling of transcript levels in response to TPP", "type": "cell-based, Bacillus subtilis", "conditions": "wild-type cells, exponential phase, minimal medium without TPP vs with TPP", "description": "In order to perform microarray profiling, PY79 was grown in shake-flask cultures that contained 50 ml Spizizen minimal medium with or without added thiamin pyrophosphate. Overnight cultures were diluted to Klett=10 units into fresh medium and grown to exponential growth phase (Klett=100 units). Cells from half of the culture were collected by centrifugation, and the total RNA was immediately extracted as previously described (Lee et al. (2001) J. Bacteriol. 183:7371-7380). The remaining culture was grown to early stationary phase before RNA extraction. Early stationary phase was judged to be 30 min after glucose exhaustion; glucose content in the medium was measured by a glucose analyzer 2 (Beckman, Fullerton, Calif.) using standard procedures. Preparation of labeled cDNA targets, microarray hybridization and staining procedures, and data analysis are described in Lee et al. above."}}, "data": [{"smiles": "Cc1ncc(CO)c(N)n1", "note": "[HMP, 4-amino-5-hydroxymethyl-2-methylpyrimidine]", "values": [{"measurement": "repression of thiA-lacZ expression", "setting": "[1]", "value": "6- to 7 fold"}]}, {"smiles": "Nc1ncnc2c1ncn2[C@@H]1O[C@H](CO)[C@@H](O)[C@H]1O", "note": "[adenosine]", "values": [{"measurement": "repressing activity on thiA-lacZ expression", "setting": "[1]", "value": "showed repressing activity"}]}, {"smiles": "c1cscn1", "note": "[thiazole]", "values": [{"measurement": "repressing activity on thiA-lacZ expression", "setting": "[1]", "value": "showed repressing activity"}]}, {"smiles": "Cc1ncc(C[n+]2csc(CCO)c2C)c(N)n1", "note": "[thiamin]", "values": [{"measurement": "repression of thiA-lacZ expression", "setting": "[1]", "value": "approximately 80 fold"}]}, {"smiles": "Cc1ncc(C[n+]2csc(CCOP(=O)(O)OP(=O)(O)O)c2C)c(N)n1", "note": "[TPP, thiamin pyrophosphate]", "values": [{"measurement": "transcript ratio wt−vit/wt+vit, gene dxs (yqiE)", "setting": "[2]", "value": "n/c"}, {"measurement": "transcript ratio wt−vit/wt+vit, gene thiA", "setting": "[2]", "value": 62}, {"measurement": "transcript ratio wt−vit/wt+vit, gene thiC", "setting": "[2]", "value": "n/c"}, {"measurement": "transcript ratio wt−vit/wt+vit, gene thiD1 (yjbV)", "setting": "[2]", "value": 32}, {"measurement": "transcript ratio wt−vit/wt+vit, gene thiD2", "setting": "[2]", "value": "n/c^b"}, {"measurement": "transcript ratio wt−vit/wt+vit, gene thiF (yjbU)", "setting": "[2]", "value": 90}, {"measurement": "transcript ratio wt−vit/wt+vit, gene thiG (yjbT)", "setting": "[2]", "value": 82}, {"measurement": "transcript ratio wt−vit/wt+vit, gene thiK", "setting": "[2]", "value": "n/c"}, {"measurement": "transcript ratio wt−vit/wt+vit, gene thiL (ydiA)", "setting": "[2]", "value": "n/c"}, {"measurement": "transcript ratio wt−vit/wt+vit, gene thiO (goxB)", "setting": "[2]", "value": 67}, {"measurement": "transcript ratio wt−vit/wt+vit, gene thiS (yjbS)", "setting": "[2]", "value": 84}, {"measurement": "transcript ratio wt−vit/wt+vit, gene ykoC", "setting": "[2]", "value": 12}, {"measurement": "transcript ratio wt−vit/wt+vit, gene ykoD", "setting": "[2]", "value": 26}, {"measurement": "transcript ratio wt−vit/wt+vit, gene ykoE", "setting": "[2]", "value": 17}, {"measurement": "transcript ratio wt−vit/wt+vit, gene ykoF", "setting": "[2]", "value": 20}, {"measurement": "transcript ratio wt−vit/wt+vit, gene ylmB", "setting": "[2]", "value": 5.0}, {"measurement": "transcript ratio wt−vit/wt+vit, gene yloS", "setting": "[2]", "value": 1.6}, {"measurement": "transcript ratio wt−vit/wt+vit, gene ytbJ", "setting": "[2]", "value": "n/c"}, {"measurement": "transcript ratio wt−vit/wt+vit, gene yuaA", "setting": "[2]", "value": 7.4}]}]}
